Laboratory results taken from ChEMBL document CHEMBL3044826, “Design, synthesis and biological evaluation of some novel substituted 2-mercapto-3-phenethylquinazolines as antitumor agents” (2013).

Experiments:
Assay type in all cases: functional
[1] = test system: EKVX; test: Cytotoxicity against Homo sapiens (human) EKVX cells assessed as growth inhibition at 10 uM after 48 hr by coulter counter analysis; conditions: read-out: GI
[2] = test system: MCF7; test: Cytotoxicity against Homo sapiens (human) MCF7 cells assessed as growth inhibition at 10 uM after 48 hr by coulter counter analysis; conditions: MCF7, 48 h, read-out: GI
[3] = test system: UACC-62; test: Cytotoxicity against Homo sapiens (human) UACC62 cells assessed as growth inhibition at 10 uM after 48 hr by coulter counter analysis; conditions: UACC-62, 48 h, read-out: GI
[4] = test system: SK-MEL-5; test: Cytotoxicity against Homo sapiens (human) SK-MEL-5 cells assessed as growth inhibition at 10 uM after 48 hr by coulter counter analysis; conditions: SK-MEL-5, 48 h, read-out: GI
[5] = test system: OVCAR-5; test: Cytotoxicity against Homo sapiens (human) OVCAR5 cells assessed as growth inhibition at 10 uM after 48 hr by coulter counter analysis; conditions: OVCAR-5, 48 h, read-out: GI
[6] = test system: A549; test: Cytotoxicity against Homo sapiens (human) A549 cells assessed as growth inhibition at 10 uM after 48 hr by coulter counter analysis; conditions: A549, 48 h, read-out: GI
[7] = test system: PC-3; test: Cytotoxicity against Homo sapiens (human) PC3 cells assessed as growth inhibition at 10 uM after 48 hr by coulter counter analysis; conditions: PC-3, 48 h, read-out: GI
[8] = test system: OVCAR-4; test: Cytotoxicity against Homo sapiens (human) OVCAR4 cells assessed as growth inhibition at 10 uM after 48 hr by coulter counter analysis; conditions: OVCAR-4, 48 h, read-out: GI
[9] = test system: HT-29; test: Cytotoxicity against Homo sapiens (human) HT-29 cells assessed as growth inhibition at 10 uM after 48 hr by coulter counter analysis; conditions: HT-29, 48 h, read-out: GI
[10] = Cytotoxicity against Homo sapiens (human) NCI-ADR-RES cells assessed as growth inhibition at 10 uM after 48 hr by coulter counter analysis; conditions: read-out: GI
[11] = test system: HCC 2998; test: Cytotoxicity against Homo sapiens (human) HCC2998 cells assessed as growth inhibition at 10 uM after 48 hr by coulter counter analysis; conditions: HCC 2998, 48 h, read-out: GI
[12] = test system: ACHN; test: Cytotoxicity against Homo sapiens (human) ACHN cells assessed as growth inhibition at 10 uM after 48 hr by coulter counter analysis; conditions: read-out: GI
[13] = test system: SW-620; test: Cytotoxicity against Homo sapiens (human) SW620 cells assessed as growth inhibition at 10 uM after 48 hr by coulter counter analysis; conditions: SW-620, 48 h, read-out: GI
[14] = test system: HCT-15; test: Cytotoxicity against Homo sapiens (human) HCT15 cells assessed as growth inhibition at 10 uM after 48 hr by coulter counter analysis; conditions: HCT-15, 48 h, read-out: GI
[15] = test system: MDA-MB-231; test: Cytotoxicity against Homo sapiens (human) MDA-MB-231 cells assessed as growth inhibition at 10 uM after 48 hr by coulter counter analysis; conditions: MDA-MB-231, 48 h, read-out: GI
[16] = test system: SNB-75; test: Cytotoxicity against Homo sapiens (human) SNB75 cells assessed as growth inhibition at 10 uM after 48 hr by coulter counter analysis; conditions: SNB-75, 48 h, read-out: GI
[17] = test system: TK-10; test: Cytotoxicity against Homo sapiens (human) TK10 cells assessed as growth inhibition at 10 uM after 48 hr by coulter counter analysis; conditions: TK-10, 48 h, read-out: GI
[18] = test system: SN12C; test: Cytotoxicity against Homo sapiens (human) SN12C cells assessed as growth inhibition at 10 uM after 48 hr by coulter counter analysis; conditions: read-out: GI
[19] = test system: SNB-19; test: Cytotoxicity against Homo sapiens (human) SNB19 cells assessed as growth inhibition at 10 uM after 48 hr by coulter counter analysis; conditions: SNB-19, 48 h, read-out: GI
[20] = test system: U-251; test: Cytotoxicity against Homo sapiens (human) U251 cells assessed as growth inhibition at 10 uM after 48 hr by coulter counter analysis; conditions: U-251, 48 h, read-out: GI
[21] = test system: OVCAR-8; test: Cytotoxicity against Homo sapiens (human) OVCAR8 cells assessed as growth inhibition at 10 uM after 48 hr by coulter counter analysis; conditions: OVCAR-8, 48 h, read-out: GI
[22] = test system: MDA-MB-435; test: Cytotoxicity against Homo sapiens (human) MDA-MB-435 cells assessed as growth inhibition at 10 uM after 48 hr by coulter counter analysis; conditions: MDA-MB-435, 48 h, read-out: GI
[23] = test system: KM12; test: Cytotoxicity against Homo sapiens (human) KM12 cells assessed as growth inhibition at 10 uM after 48 hr by coulter counter analysis; conditions: KM12, 48 h, read-out: GI
[24] = test system: HOP-62; test: Cytotoxicity against Homo sapiens (human) HOP62 cells assessed as growth inhibition at 10 uM after 48 hr by coulter counter analysis; conditions: HOP-62, 48 h, read-out: GI
[25] = test system: SK-MEL-28; test: Cytotoxicity against Homo sapiens (human) SK-MEL-28 cells assessed as growth inhibition at 10 uM after 48 hr by coulter counter analysis; conditions: SK-MEL-28, 48 h, read-out: GI
[26] = test system: BT-549; test: Cytotoxicity against Homo sapiens (human) BT549 cells assessed as growth inhibition at 10 uM after 48 hr by coulter counter analysis; conditions: BT-549, 48 h, read-out: GI
[27] = test system: A498; test: Cytotoxicity against Homo sapiens (human) A498 cells assessed as growth inhibition at 10 uM after 48 hr by coulter counter analysis; conditions: A498, 48 h, read-out: GI
[28] = test system: UO-31; test: Cytotoxicity against Homo sapiens (human) UO31 cells assessed as growth inhibition at 10 uM after 48 hr by coulter counter analysis; conditions: UO-31, 48 h, read-out: GI
[29] = test system: RXF 393; test: Cytotoxicity against Homo sapiens (human) RXF393 cells assessed as growth inhibition at 10 uM after 48 hr by coulter counter analysis; conditions: RXF 393, 48 h, read-out: GI
[30] = test system: Malme-3M; test: Cytotoxicity against Homo sapiens (human) MALME-3M cells assessed as growth inhibition at 10 uM after 48 hr by coulter counter analysis; conditions: read-out: GI
[31] = test system: NCI-H322M; test: Cytotoxicity against Homo sapiens (human) NCI-H322M cells assessed as growth inhibition at 10 uM after 48 hr by coulter counter analysis; conditions: read-out: GI
[32] = test system: MDA-MB-468; test: Cytotoxicity against Homo sapiens (human) MDA-MB-468 cells assessed as growth inhibition at 10 uM after 48 hr by coulter counter analysis; conditions: MDA-MB-468, 48 h, read-out: GI
[33] = test system: COLO 205; test: Cytotoxicity against Homo sapiens (human) COLO205 cells assessed as growth inhibition at 10 uM after 48 hr by coulter counter analysis; conditions: COLO 205, 48 h, read-out: GI
[34] = test system: SF-268; test: Cytotoxicity against Homo sapiens (human) SF268 cells assessed as growth inhibition at 10 uM after 48 hr by coulter counter analysis; conditions: SF-268, 48 h, read-out: GI

Structure (SMILES)	inhibition of growth at 10 µM [1] [%]	inhibition of growth at 10 µM [2] [%]	inhibition of growth at 10 µM [3] [%]	inhibition of growth at 10 µM [4] [%]	inhibition of growth at 10 µM [5] [%]	inhibition of growth at 10 µM [6] [%]	inhibition of growth at 10 µM [7] [%]	inhibition of growth at 10 µM [8] [%]	inhibition of growth at 10 µM [9] [%]	inhibition of growth at 10 µM [10] [%]	inhibition of growth at 10 µM [11] [%]	inhibition of growth at 10 µM [12] [%]	inhibition of growth at 10 µM [13] [%]	inhibition of growth at 10 µM [14] [%]	inhibition of growth at 10 µM [15] [%]	inhibition of growth at 10 µM [16] [%]	inhibition of growth at 10 µM [17] [%]	inhibition of growth at 10 µM [18] [%]	inhibition of growth at 10 µM [19] [%]	inhibition of growth at 10 µM [20] [%]	further results
COc1ccc(-n2c(S)nnc2CSc2nc3ccccc3c(=O)n2CCc2ccccc2)cc1	31	28	19	24	< 10	< 10	30	< 10	< 10	< 10	< 10	< 10	< 10	25	20	< 10	< 10	< 10	< 10	11	inhibition of growth at 10 µM [21]: < 10%; inhibition of growth at 10 µM [22]: < 10%; inhibition of growth at 10 µM [23]: < 10%; inhibition of growth at 10 µM [24]: < 10%; inhibition of growth at 10 µM [25]: < 10%; inhibition of growth at 10 µM [26]: < 10%; inhibition of growth at 10 µM [27]: 51%; inhibition of growth at 10 µM [28]: 30%; inhibition of growth at 10 µM [29]: < 10%; inhibition of growth at 10 µM [30]: < 10%; inhibition of growth at 10 µM [31]: < 10%; inhibition of growth at 10 µM [32]: 38%; inhibition of growth at 10 µM [33]: < 10%; inhibition of growth at 10 µM [34]: < 10%
O=c1c2ccccc2nc(SCCN2CCOCC2)n1CCc1ccccc1	< 10	< 10	< 10	< 10	< 10	< 10	14	< 10	< 10	< 10	< 10	< 10	< 10	< 10	< 10	< 10	< 10	< 10	< 10	< 10	inhibition of growth at 10 µM [21]: < 10%; inhibition of growth at 10 µM [22]: < 10%; inhibition of growth at 10 µM [23]: < 10%; inhibition of growth at 10 µM [24]: < 10%; inhibition of growth at 10 µM [25]: < 10%; inhibition of growth at 10 µM [26]: < 10%; inhibition of growth at 10 µM [27]: < 10%; inhibition of growth at 10 µM [28]: 14%; inhibition of growth at 10 µM [29]: < 10%; inhibition of growth at 10 µM [30]: < 10%; inhibition of growth at 10 µM [31]: < 10%; inhibition of growth at 10 µM [32]: < 10%; inhibition of growth at 10 µM [33]: < 10%; inhibition of growth at 10 µM [34]: < 10%
CSc1nc2ccccc2c(=O)n1CCc1ccccc1	29	34	12	19	< 10	12	33	21	< 10	18	< 10	34	12	39	30	< 10	< 10	< 10	< 10	12	inhibition of growth at 10 µM [21]: < 10%; inhibition of growth at 10 µM [22]: 47%; inhibition of growth at 10 µM [23]: 28%; inhibition of growth at 10 µM [24]: 12%; inhibition of growth at 10 µM [25]: < 10%; inhibition of growth at 10 µM [26]: < 10%; inhibition of growth at 10 µM [27]: 18%; inhibition of growth at 10 µM [28]: 37%; inhibition of growth at 10 µM [29]: 30%; inhibition of growth at 10 µM [30]: < 10%; inhibition of growth at 10 µM [31]: < 10%; inhibition of growth at 10 µM [32]: 84%; inhibition of growth at 10 µM [33]: 19%; inhibition of growth at 10 µM [34]: < 10%
